# Laboratory results published in article PMC11415492 (Nature Communications, 2024).
# Values joined by “and” are separate entries in the source; they are usually repeats but may differ in a detail not shown here. Identical values can stand only once. Counter-ions that a name gives are not always drawn. Like-named read-outs stand apart in the source and are kept apart here.
# How the values were obtained:
# hKOR = molecular target: T1, hKOR (Homo sapiens, UniProt P41145); assay: G protein activation BRET assay; format: cell-based; details: for response, Fig. S5b concentration-response point (replicates): Log [Drug]
# T1 construct: expressed in transfected cells; host or cells: HEK-293T, transient (PEI)
# [1] = Pharmacokinetic study in mice (plasma and brain), with estimated free drug concentrations; format: in vivo, mouse; details: for Brain Concentration (total) / Free Brain Concentration / Free Plasma Concentration / Plasma Concentration (total) / concentration at 0.083 h / concentration at 0.25 h / concentration at 0.5 h / concentration at 1 h / concentration at 2 h: mice, individual animals; for Brain Concentration (total) / Free Brain Concentration / Free Plasma Concentration / Plasma Concentration (total) / Total concentration / concentration at 0.083 h / concentration at 0.25 h / concentration at 0.5 h / concentration at 1 h / concentration at 2 h: 10 mg/kg s.c.; for Brain Concentration (total) / Free Brain Concentration / Free Plasma Concentration / Plasma Concentration (total) / concentration at 0.083 h / concentration at 0.25 h / concentration at 0.5 h / concentration at 1 h / concentration at 2 h / Cmax / AUC(0-inf) / AUC(0-t): 10 mg/kg; for Total concentration: Mice; for CLf / T1/2 / Cmax / AUC(0-inf) / AUC(0-t): male C57BL/6 mice; for concentration at 0.083 h / concentration at 0.25 h / concentration at 0.5 h / concentration at 1 h / concentration at 2 h / Cmax / AUC(0-inf) / AUC(0-t): male, C57BL/6, mouse, sc
# T1 sequence (P41145 whole entry): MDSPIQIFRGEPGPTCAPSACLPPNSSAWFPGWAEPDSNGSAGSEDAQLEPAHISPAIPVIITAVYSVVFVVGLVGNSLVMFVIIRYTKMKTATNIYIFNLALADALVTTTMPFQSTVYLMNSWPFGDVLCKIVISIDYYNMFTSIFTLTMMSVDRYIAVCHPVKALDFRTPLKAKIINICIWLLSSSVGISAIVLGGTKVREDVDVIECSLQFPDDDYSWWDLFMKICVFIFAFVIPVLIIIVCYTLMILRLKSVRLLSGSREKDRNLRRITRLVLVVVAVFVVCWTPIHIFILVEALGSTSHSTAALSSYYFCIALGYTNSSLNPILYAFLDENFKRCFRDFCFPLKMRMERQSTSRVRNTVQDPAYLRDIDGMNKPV
structure (smiles),measurement,setting,value
"CCC1CC2CC3c4[nH]c5ccc(O)cc5c4CCN(C2)C13 (centres unmarked) [Noribogaine, Noribogaine hydrochloride]","response, Fig. S5b concentration-response point (replicates)",hKOR; M = -4,63.4148 and 52.568 and 43.4303 and -3.268 and 15.5992 and -3.578 and 46.3729 and 68.2306 and 65.5059
same,"response, Fig. S5b concentration-response point (replicates)",hKOR; M = -5,44.129 and 7.591 and 58.3969 and -7.944 and -3.52 and -16.5221 and 8.861 and 66.0772 and 47.0286
same,"response, Fig. S5b concentration-response point (replicates)",hKOR; M = -6,20.3519 and 3.61 and -1.914 and -21.4522 and 4.635 and -8.327 and 2.307 and 50.686 and 6.38
same,"response, Fig. S5b concentration-response point (replicates)",hKOR; M = -7,-3.613 and 22.2417 and 10.4815 and -11.7203 and -7.426 and -8.634 and -0.3969 and 6.635 and -33.8028
same,"response, Fig. S5b concentration-response point (replicates)",hKOR; M = -8,-6.02 and -4.0285 and -3.934 and -14.0445 and 2.721 and -12.2464 and 2.029 and -16.111 and -2.683
same,"response, Fig. S5b concentration-response point (replicates)",hKOR; M = -9,5.431 and -20.2939 and -8.392 and 0.6992 and -6.586 and -12.3198 and -2.633 and 36.0973 and 2.925
same,"response, Fig. S5b concentration-response point (replicates)",hKOR; M = -10,4.023 and 14.614 and -14.1911 and -26.8111 and -11.2252 and 12.0579 and -0.5811 and 6.156 and 9.5717
same,"response, Fig. S5b concentration-response point (replicates)",hKOR; M = -11,-10.3398 and -7.2943 and -10.3521 and -20.7885 and 4.252 and -10.5358 and -2.026 and -5.486 and -20.474
same,Emax,"hKOR; normalized to Emax of U-50,488",46%
same,Brain Concentration (total),[1]; 0.083 h,6.61 µmol/L and 8.95 µmol/L
same,Free Brain Concentration,[1]; 0.083 h,0.78 µmol/L and 1.057 µmol/L
same,Free Plasma Concentration,[1]; 0.083 h,2258 nM and 2308 nM and 1083 nM
same,Plasma Concentration (total),[1]; 0.083 h,4.83 µmol/L and 2.26 µmol/L and 4.72 µmol/L
same,Brain Concentration (total),[1]; 0.25 h,14.1 µmol/L and 14.82 µmol/L
same,Free Brain Concentration,[1]; 0.25 h,1.664 µmol/L and 1.749 µmol/L
same,Free Plasma Concentration,[1]; 0.25 h,2314 nM and 3247 nM
same,Plasma Concentration (total),[1]; 0.25 h,6.79 µmol/L and 6.1 µmol/L
same,Brain Concentration (total),[1]; 0.5 h,18.56 µmol/L and 18.39 µmol/L
same,Free Brain Concentration,[1]; 0.5 h,2.19 µmol/L and 2.17 µmol/L
same,Free Plasma Concentration,[1]; 0.5 h,2561 nM and 3671 nM
same,Plasma Concentration (total),[1]; 0.5 h,7.68 µmol/L and 6.99 µmol/L
same,Brain Concentration (total),[1]; 1 h,11.3 µmol/L and 11.04 µmol/L
same,Free Brain Concentration,[1]; 1 h,1.334 µmol/L and 1.303 µmol/L
same,Free Plasma Concentration,[1]; 1 h,1924 nM and 1899 nM
same,Plasma Concentration (total),[1]; 1 h,3.97 µmol/L and 4.11 µmol/L
same,Brain Concentration (total),[1]; 2 h,4.77 µmol/L and 6.38 µmol/L
same,Free Brain Concentration,[1]; 2 h,0.563 µmol/L and 0.752 µmol/L
same,Free Plasma Concentration,[1]; 2 h,1638 nM and 938 nM
same,Plasma Concentration (total),[1]; 2 h,1.96 µmol/L and 2.67 µmol/L
same,Brain Concentration (total),[1]; 4 h,2.93 µmol/L and 1.78 µmol/L and 5.54 µmol/L
same,Free Brain Concentration,[1]; 4 h,0.346 µmol/L and 0.211 µmol/L and 0.654 µmol/L
same,Free Plasma Concentration,[1]; 4 h,1067 nM and 684 nM and 289 nM
same,Plasma Concentration (total),[1]; 4 h,1.43 µmol/L and 0.61 µmol/L and 2.23 µmol/L
same,Brain Concentration (total),[1]; 8 h,0.81 µmol/L and 0.72 µmol/L and 0.21 µmol/L
same,Free Brain Concentration,[1]; 8 h,0.095 µmol/L and 0.085 µmol/L and 0.024 µmol/L
same,Free Plasma Concentration,[1]; 8 h,47 nM and 125 nM and 114 nM
same,Plasma Concentration (total),[1]; 8 h,0.26 µmol/L and 0.24 µmol/L and 0.1 µmol/L
same,Brain Concentration (total),[1]; 24 h,0.03 µmol/L and 0 µmol/L (2×)
same,Free Brain Concentration,[1]; 24 h,0.004 µmol/L and 0 µmol/L (2×)
same,Free Plasma Concentration,[1]; 24 h,2 nM and 4 nM and 0 nM
same,Plasma Concentration (total),[1]; 24 h,0.01 µmol/L and 0 µmol/L (2×)
same,Total concentration,[1]; Brain,17.18 µmol/L
same,CLf,"[1]; Brain, single s.c. 10 mg/kg",13.76 mL/min/kg
same,T1/2,"[1]; Brain, single s.c. 10 mg/kg",1.71 h
same,Total concentration,[1]; Plasma,6.68 µmol/L
same,CLf,"[1]; Plasma, single s.c. 10 mg/kg",31.87 mL/min/kg
same,T1/2,"[1]; Plasma, single s.c. 10 mg/kg",2.76 h
same,CLf,"[1]; brain, s.c. 10 mg/kg",13.76 mL/min/kg
same,concentration at 0.083 h,"[1]; brain, 0.083 h, read-out: Brain Concentration (total)",6750 nM
same,concentration at 0.083 h,"[1]; brain, 0.083 h, read-out: Free Brain Concentration",797 nM
same,concentration at 0.25 h,"[1]; brain, 0.25 h, read-out: Brain Concentration (total)",8040 nM
same,concentration at 0.25 h,"[1]; brain, 0.25 h, read-out: Free Brain Concentration",949 nM
same,concentration at 0.5 h,"[1]; brain, 0.5 h, read-out: Brain Concentration (total)",14600 nM
same,concentration at 0.5 h,"[1]; brain, 0.5 h, read-out: Free Brain Concentration",1720 nM
same,concentration at 1 h,"[1]; brain, 1 h, read-out: Brain Concentration (total)",11700 nM
same,concentration at 1 h,"[1]; brain, 1 h, read-out: Free Brain Concentration",1380 nM
same,concentration at 2 h,"[1]; brain, 2 h, read-out: Brain Concentration (total)",7820 nM
same,concentration at 2 h,"[1]; brain, 2 h, read-out: Free Brain Concentration",923 nM
same,Cmax,"[1]; brain, Brain (brain conc. as ng/g), single s.c. 10 mg/kg",5090 ng/mL
same,AUC(0-inf),"[1]; brain, s.c. 10 mg/kg",12100 ng·h/mL
same,AUC(0-t),"[1]; brain, s.c. 10 mg/kg",11700 ng·h/mL
same,Cmax,"[1]; brain, s.c. 10 mg/kg",5090 ng/g
same,AUC(0-inf),"[1]; brain, single s.c. 10 mg/kg",12100 ng·h/mL
same,AUC(0-t),"[1]; brain, single s.c. 10 mg/kg",11700 ng·h/mL and 39.4 µM·h
same,Cmax,"[1]; brain, single s.c. 10 mg/kg",17200 nM
